Laboratory results: patent US9150568B2, “Compositions and methods for modulating FXR” (NOVARTIS AG, priority 2010, dated 2015)

molecular target: T1, human Farnesoid X Receptor (FXR) ligand binding domain (GST-FXR LBD) (Homo sapiens, UniProt Q96RI1); experiment: Human GST-FXR LBD co-activator interaction assay (HTRF); format: biochemical; conditions: GST-FXR LBD / biotin-SRC-1 peptide FRET; response relative to GW4064; read-out: FXR Co-activator interaction assay (EC50)
T1 construct: purchased Invitrogen
T1 sequence (Q96RI1 193-472 isoform Q96RI1-2): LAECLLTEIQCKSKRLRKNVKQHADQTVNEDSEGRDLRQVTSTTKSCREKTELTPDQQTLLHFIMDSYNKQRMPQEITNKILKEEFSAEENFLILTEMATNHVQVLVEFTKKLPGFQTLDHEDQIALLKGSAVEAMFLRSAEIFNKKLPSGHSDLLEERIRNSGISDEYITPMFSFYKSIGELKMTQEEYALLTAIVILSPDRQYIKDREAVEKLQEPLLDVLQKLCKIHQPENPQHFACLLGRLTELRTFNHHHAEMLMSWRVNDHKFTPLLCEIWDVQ
Outline: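 FRET (HTRF) read-out of ligand-induced binding between GST-FXR LBD and an SRC-1 peptide, detected with anti-GST cryptate and streptavidin-XL665 in buffer with 50 mM KF. Response % was normalized to DMSO and to the maximal GW4064 response. EC50 came from a four-parameter fit.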

Compound	EC50 [nM]
COC(=O)c1ccnc(N2C3CC[C@H]2CC(OCc2c(-c4ccccc4OC(F)F)noc2C2CC2)C3)n1 (stereo partly drawn) [Example 22-2A]	60
O=C(O)c1ccnc(N2C3CC[C@H]2CC(OCc2c(-c4ccccc4OC(F)F)noc2C2CC2)C3)n1 (stereo partly drawn) [Example 22-2B]	9
COC(=O)c1cccc(N2C3CC[C@H]2CC(OCc2c(-c4ccccc4OC(F)F)noc2C2CC2)C3)n1 (stereo partly drawn) [Example 22-3]	10
COC(=O)c1cnc(N2C3CC[C@H]2CC(OCc2c(-c4ccccc4OC(F)F)noc2C2CC2)C3)cc1C (stereo partly drawn) [Example 22-4A]	20
Cc1cc(N2C3CC[C@H]2CC(OCc2c(-c4ccccc4OC(F)F)noc2C2CC2)C3)ncc1C(=O)O (stereo partly drawn) [Example 22-4B]	9
COC(=O)c1cc(C)nc(N2C3CC[C@H]2CC(OCc2c(-c4ccccc4OC(F)F)noc2C2CC2)C3)n1 (stereo partly drawn) [Example 22-5]	27
COC(=O)c1cnc(N2C3CC[C@H]2CC(OCc2c(-c4ccccc4OC(F)F)noc2C2CC2)C3)cc1Cl (stereo partly drawn) [Example 22-6A]	56
COC(=O)c1cnc(N2C3CC[C@H]2CC(OCc2c(-c4ccccc4OC(F)F)noc2C2CC2)C3)c(C)c1 (stereo partly drawn) [Example 22-7A]	10
Cc1cc(C(=O)O)cnc1N1C2CC[C@H]1CC(OCc1c(-c3ccccc3OC(F)F)noc1C1CC1)C2 (stereo partly drawn) [Example 22-7B]	5
Cc1cc(C(=O)O)nc(N2C3CC[C@H]2CC(OCc2c(-c4ccccc4OC(F)F)noc2C2CC2)C3)n1 (stereo partly drawn) [Example 22-8]	5
COC(=O)c1ccc(N2C3CC[C@H]2CC(OCc2c(-c4ccccc4OC(F)F)noc2C2CC2)C3)nn1 (stereo partly drawn) [Example 22-9A]	1030
O=C(O)c1ccc(N2C3CC[C@H]2CC(OCc2c(-c4ccccc4OC(F)F)noc2C2CC2)C3)nn1 (stereo partly drawn) [Example 22-9B]	17
COC(=O)c1cnc(N2C3CC[C@H]2CC(OCc2c(-c4ccccc4OC(F)F)noc2C2CC2)C3)nc1 (stereo partly drawn) [Example 22-10A]	360
O=C(O)c1cnc(N2C3CC[C@H]2CC(OCc2c(-c4ccccc4OC(F)F)noc2C2CC2)C3)nc1 (stereo partly drawn) [Example 22-10B]	8
COC(=O)c1cnc(N2C3CC[C@H]2CC(OCc2c(-c4ccccc4OC(F)F)noc2C2CC2)C3)cn1 (stereo partly drawn) [Example 22-11A]	110
O=C(O)c1cnc(N2C3CC[C@H]2CC(OCc2c(-c4ccccc4OC(F)F)noc2C2CC2)C3)cn1 (stereo partly drawn) [Example 22-11B]	10
COC(=O)c1ccc(N2[C@@H]3CC[C@H]2C[C@@H](OCc2c(-c4c(F)cccc4F)noc2C2CC2)C3)nc1 [Example 22-13A]	80
O=C(O)c1ccc(N2[C@@H]3CC[C@H]2C[C@@H](OCc2c(-c4c(F)cccc4F)noc2C2CC2)C3)nc1 [Example 22-13B]	9
COC(=O)c1cnc(N2C3CC[C@H]2CC(OCc2c(-c4c(F)cccc4F)noc2C2CC2)C3)nc1 (stereo partly drawn) [Example 22-14A]	70
O=C(O)c1cnc(N2C3CC[C@H]2CC(OCc2c(-c4c(F)cccc4F)noc2C2CC2)C3)nc1 (stereo partly drawn) [Example 22-14B]	13

Compound	EC50 [nM]
COC(=O)c1cnc(N2C3CC[C@H]2CC(OCc2c(-c4c(F)cccc4F)noc2C2CC2)C3)cn1 (stereo partly drawn) [Example 22-15A]	130
O=C(O)c1cnc(N2[C@@H]3CC[C@H]2C[C@@H](OCc2c(-c4c(F)cccc4F)noc2C2CC2)C3)cn1 [Example 22-15B]	28
COC(=O)c1cnc(N2[C@@H]3CC[C@H]2C[C@@H](OCc2c(-c4c(F)cccc4F)noc2C2CC2)C3)cc1C(F)(F)F [Example 22-16A]	160
O=C(O)c1cnc(N2C3CC[C@H]2CC(OCc2c(-c4c(F)cccc4F)noc2C2CC2)C3)cc1C(F)(F)F (stereo partly drawn) [Example 22-16B]	10
COC(=O)c1cnc(N2[C@@H]3CC[C@H]2C[C@@H](OCc2c(-c4c(F)cccc4F)noc2C2CC2)C3)c(C2CC2)c1 [Example 22-17A]	65
O=C(O)c1cnc(N2[C@@H]3CC[C@H]2C[C@@H](OCc2c(-c4c(F)cccc4F)noc2C2CC2)C3)c(C2CC2)c1 [Example 22-17B]	3
COC(=O)c1cc(C)nc(N2C3CC[C@H]2CC(OCc2c(-c4c(F)cccc4F)noc2C2CC2)C3)n1 (stereo partly drawn) [Example 22-18A]	43
Cc1cc(C(=O)O)nc(N2C3CC[C@H]2CC(OCc2c(-c4c(F)cccc4F)noc2C2CC2)C3)n1 (stereo partly drawn) [Example 22-18B]	18
COC(=O)c1cc(N2C3CC[C@H]2CC(OCc2c(-c4c(F)cccc4F)noc2C2CC2)C3)nc(Cl)n1 (stereo partly drawn) [Example 22-19]	57
COC(=O)c1cc(Cl)nc(N2C3CC[C@H]2CC(OCc2c(-c4c(F)cccc4F)noc2C2CC2)C3)n1 (stereo partly drawn) [Example 22-20]	25
COC(=O)c1cnc(N2C3CC[C@H]2CC(OCc2c(-c4c(F)cccc4F)noc2C2CC2)C3)c(Br)c1 (stereo partly drawn) [Example 22-21]	29
COC(=O)c1cc(F)c(N2C3CC[C@H]2CC(OCc2c(-c4ccccc4OC(F)(F)F)noc2C2CC2)C3)c(F)c1 (stereo partly drawn) [Example 24-1A]	40
O=C(O)c1cc(F)c(N2C3CC[C@H]2CC(OCc2c(-c4ccccc4OC(F)(F)F)noc2C2CC2)C3)c(F)c1 (stereo partly drawn) [Example 24-1B]	8
COC(=O)c1cc(F)c(N2C3CC[C@H]2CC(OCc2c(-c4ccccc4OC(F)F)noc2C2CC2)C3)c(F)c1 (stereo partly drawn) [Example 25-1A]	28
O=C(O)c1cc(F)c(N2C3CC[C@H]2CC(OCc2c(-c4ccccc4OC(F)F)noc2C2CC2)C3)c(F)c1 (stereo partly drawn) [Example 25-1B]	3
COC(=O)c1cc(F)c(N2C3CC[C@H]2CC(OCc2c(-c4ccccc4C(F)(F)F)noc2C2CC2)C3)c(F)c1 (stereo partly drawn) [Example 25-2A]	420
O=C(O)c1cc(F)c(N2C3CC[C@H]2CC(OCc2c(-c4ccccc4C(F)(F)F)noc2C2CC2)C3)c(F)c1 (stereo partly drawn) [Example 25-2B]	5
COC(=O)c1ccc(N2C3CC[C@H]2CC(OCc2c(-c4c(F)cccc4F)noc2C2CC2)C3)c(F)c1 (stereo partly drawn) [Example 25-3A]	80
O=C(O)c1ccc(N2C3CC[C@H]2CC(OCc2c(-c4c(F)cccc4F)noc2C2CC2)C3)c(F)c1 (stereo partly drawn) [Example 25-3B]	0.9
O=C(O)c1cc(F)c(N2[C@@H]3CC[C@H]2C[C@@H](OCc2c(-c4c(F)cccc4F)noc2C2CC2)C3)c(F)c1 [Example 25-4B]	2

Compound	EC50 [nM]
COC(=O)c1ccc(N2C3CC[C@H]2CC(OCc2c(-c4ccccc4C(F)(F)F)noc2C2CC2)C3)c(F)c1 (stereo partly drawn) [Example 25-5A]	280
O=C(O)c1ccc(N2C3CC[C@H]2CC(OCc2c(-c4ccccc4C(F)(F)F)noc2C2CC2)C3)c(F)c1 (stereo partly drawn) [Example 25-5B]	1
COC(=O)c1ccc(N2C3CC[C@H]2CC(OCc2c(-c4ccccc4OC(F)F)noc2C2CC2)C3)c(F)c1 (stereo partly drawn) [Example 25-6A]	9
O=C(O)c1ccc(N2C3CC[C@H]2CC(OCc2c(-c4ccccc4OC(F)F)noc2C2CC2)C3)c(F)c1 (stereo partly drawn) [Example 25-6B]	3
NC(=O)c1ccc(N2C3CC[C@H]2CC(OCc2c(-c4ccccc4OC(F)F)noc2C2CC2)C3)c(F)c1 (stereo partly drawn) [Example 27]	2
O=C(O)c1nsc2cc(N3C4CC[C@H]3CC(OCc3c(-c5ccccc5OC(F)(F)F)noc3C3CC3)C4)ccc12 (stereo partly drawn) [Example 28-1B, 6-(3-((5-Cyclopropyl-3-(2-(trifluoromethoxy)phenyl)isoxazol-4-yl)methoxy)-8-azabicyclo[3.2.1]octan-8-yl)benzo[d]isothiazole-3-carboxylic acid]	0.6
O=C(O)c1cnc2ccc(N3C4CC[C@H]3CC(OCc3c(-c5ccccc5OC(F)(F)F)noc3C3CC3)C4)cn12 (stereo partly drawn) [Example 28-2]	16
O=C(O)c1cnc2cc(N3C4CC[C@H]3CC(OCc3c(-c5ccccc5OC(F)(F)F)noc3C3CC3)C4)ccc2c1 (stereo partly drawn) [Example 28-3]	0.8
Cn1c(C(=O)O)cc2ccc(N3C4CC[C@H]3CC(OCc3c(-c5ccccc5OC(F)(F)F)noc3C3CC3)C4)cc21 (stereo partly drawn) [Example 28-4]	2
O=C(O)c1ccc(N2C3CC[C@H]2CC(OCc2c(-c4ccccc4OC(F)(F)F)noc2C2CC2)C3)cc1 (stereo partly drawn) [Example 28-6]	1.7
O=C(O)C1(c2ccc(N3C4CC[C@H]3CC(OCc3c(-c5ccccc5OC(F)(F)F)noc3C3CC3)C4)cc2)CC1 (stereo partly drawn) [Example 28-7]	21
Cc1c(N2[C@@H]3CC[C@H]2C[C@@H](OCc2c(-c4ccccc4C4CC4)noc2C2CC2)C3)ccc2oc(C(=O)O)cc12 [Example 28-8]	10.4
Cc1c(N2C3CC[C@H]2CC(OCc2c(-c4ccccc4Cl)noc2C2CC2)C3)ccc2oc(C(=O)O)cc12 (stereo partly drawn) [Example 28-9]	0.3
Cc1c(N2C3CC[C@H]2CC(OCc2c(-c4c(F)cccc4F)noc2C2CC2)C3)ccc2oc(C(=O)O)cc12 (stereo partly drawn) [Example 28-10]	0.9
Cc1c(N2C3CC[C@H]2CC(OCc2c(-c4ccccc4OC(F)(F)F)noc2C2CC2)C3)ccc2oc(C(=O)O)cc12 (stereo partly drawn) [Example 28-11]	1.3
Cc1c(N2C3CC[C@H]2CC(OCc2c(-c4ccccc4C(F)(F)F)noc2C2CC2)C3)ccc2oc(C(=O)O)cc12 (stereo partly drawn) [Example 28-12]	2.8
O=C(O)c1cc2cc(N3C4CC[C@H]3CC(OCc3c(-c5ccccc5OC(F)(F)F)noc3C3CC3)C4)ccc2s1 (stereo partly drawn) [Example 28-13]	7.4
O=C(O)c1cc2cc(N3C4CC[C@H]3CC(OCc3c(-c5ccccc5OC(F)(F)F)noc3C3CC3)C4)ccc2o1 (stereo partly drawn) [Example 28-14]	4.6
O=C(O)c1cc2ccc(N3C4CC[C@H]3CC(OCc3c(-c5ccccc5OC(F)(F)F)noc3C3CC3)C4)cc2o1 (stereo partly drawn) [Example 28-15]	3.4
Cn1nc(C(=O)O)c2cc(N3C4CC[C@H]3CC(OCc3c(-c5ccccc5OC(F)(F)F)noc3C3CC3)C4)ccc21 (stereo partly drawn) [Example 28-16]	63
